These are literature values, as cited in patent publication US20200368234A1, “PHOTORECEPTOR GENE MODULATOR PHOTOREGULIN 3 FOR TREATMENT OF RETINAL DISEASE” (University of Washington, priority 2017, published 2020).

In data set [1] the test system is Rho^P23H. Particulars: Rho^P23H model of RP; previously reported; cited from earlier work.
The subject of data set [2] is Pde6b^Rd1. The note with it: Pde6b^Rd1 model of RP; previously reported; cited from earlier work.
Data set [3] concerns rod gene expression. The note with it: developing or mature retina treated with PR1; previously reported; cited from earlier work.

Take `Cc1cc(C)cc(NC(=O)CCc2nc3sc4c(c3c(=O)[nH]2)CCCC4)c1` [PR1]: the “rod degeneration in vitro” value in data set [1] and in data set [2] was “slows rod degeneration in vitro” in each case. In addition, the “rod and cone gene expression” value in data set [3] was “reduces rod gene expression and increases the expression of some cone genes”.
